Earlier results on 2 molecules are cited in patent publication US11285107B2, “Process for manufacturing porous silica particles loaded with at least one bioactive compound adapted for lung, nasal, sublingual, and/or pharyngeal delivery” (Nanologica AB, priority 2017, dated 2022).

In the case of `NCC(=O)Nc1ccc(-n2nc(C(F)(F)F)cc2-c2ccc3c(ccc4ccccc43)c2)cc1` [OSU-03012, 2-amino-N-(4-(5-(phenanthren-2-yl)-3-(trifluoromethyl)-1H-pyrazol-1-yl)phenyl)acetamide], the “solubility in water” value is “insoluble in water”.

`CCN(CC)CCNC(=O)c1cc(Cl)c(N)cc1OC` [metoclopramide]: the solubility in water is over 6 mg/mL.
